In paper PMC10847513, “Plastid ancestors lacked a complete Entner-Doudoroff pathway, limiting plants to glycolysis and the pentose phosphate pathway” (Nature Communications, 2024):
Values belong to the compound of their own block, whether it stands above or below them.

Key:
[1] = molecular target: T1, E. coli EDD (Escherichia coli, UniProt P0ADF6); assay: LCMS/MS product assay; assay type: biochemical; settings: pH 8.0, 30 °C, 100 mM Tris-HCl, 10 mM MgCl2, 1 mM DTT; 4.4 mM substrate; dehydration to KDPG
T1 construct: full length, His-tagged (pET28), E. coli BL21(DE3), Ni-NTA
T1 sequence (P0ADF6 1-603): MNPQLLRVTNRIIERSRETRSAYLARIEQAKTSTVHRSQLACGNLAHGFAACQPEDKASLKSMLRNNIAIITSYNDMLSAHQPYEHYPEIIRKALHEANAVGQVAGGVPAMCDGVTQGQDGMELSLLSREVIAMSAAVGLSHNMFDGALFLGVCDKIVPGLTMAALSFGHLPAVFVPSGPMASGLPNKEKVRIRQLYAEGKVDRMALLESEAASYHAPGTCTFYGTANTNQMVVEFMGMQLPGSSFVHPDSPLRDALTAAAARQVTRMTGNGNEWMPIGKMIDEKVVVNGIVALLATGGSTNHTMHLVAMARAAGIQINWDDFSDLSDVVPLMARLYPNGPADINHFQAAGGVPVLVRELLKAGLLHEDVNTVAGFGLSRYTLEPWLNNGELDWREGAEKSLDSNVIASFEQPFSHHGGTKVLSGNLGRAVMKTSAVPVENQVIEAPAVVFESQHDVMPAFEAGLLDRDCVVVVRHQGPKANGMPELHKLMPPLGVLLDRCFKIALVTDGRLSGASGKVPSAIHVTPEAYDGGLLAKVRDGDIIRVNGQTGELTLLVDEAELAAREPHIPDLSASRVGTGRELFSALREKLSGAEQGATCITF

[2] = molecular target: T2, GmEDA (soybean KDPG aldolase, pseudomature) (Glycine max, UniProt K7LFS1); assay: LCMS/MS product assay, Lineweaver-Burk; assay type: biochemical; settings: pH 8.0, 30 °C, 50 mM KH2PO4, 100 mM NaCl, 1 mM DTT; substrate 0.25-1 mM; aldol cleavage
T2 construct: gene LOC100800025
T2 sequence (K7LFS1 1-256): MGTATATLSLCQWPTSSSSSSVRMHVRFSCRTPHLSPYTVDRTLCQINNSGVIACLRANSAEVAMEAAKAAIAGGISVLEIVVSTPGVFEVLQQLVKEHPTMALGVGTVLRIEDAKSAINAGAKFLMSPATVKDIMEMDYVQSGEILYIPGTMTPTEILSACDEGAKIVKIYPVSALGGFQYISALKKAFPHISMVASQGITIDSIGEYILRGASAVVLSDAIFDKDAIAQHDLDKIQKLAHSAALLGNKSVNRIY

[3] = molecular target: T3, E. coli DHAD (Escherichia coli, UniProt P05791); assay: LCMS/MS product assay; assay type: biochemical; settings: pH 8.0, 30 °C, 100 mM Tris-HCl, 10 mM MgCl2, 1 mM DTT; 4.4 mM substrate; dehydration to 2-ketoisovalerate
T3 construct: gene ilvD; full length, His-tagged (pET28), E. coli BL21(DE3), Ni-NTA

[4] = molecular target: E. coli EDA (Escherichia coli, UniProt P0A955); settings: pH 8.0, 30 °C, 50 mM KH2PO4, 100 mM NaCl, 1 mM DTT; aldol cleavage to GAP and pyruvate
E. coli EDA, sequence (P0A955 whole entry): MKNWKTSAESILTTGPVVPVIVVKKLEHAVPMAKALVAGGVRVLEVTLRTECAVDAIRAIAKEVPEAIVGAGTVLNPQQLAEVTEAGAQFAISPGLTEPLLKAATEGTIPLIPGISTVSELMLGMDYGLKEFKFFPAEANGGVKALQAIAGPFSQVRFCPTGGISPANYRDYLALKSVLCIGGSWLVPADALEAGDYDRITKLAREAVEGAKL

T3 sequence (P05791 2-616): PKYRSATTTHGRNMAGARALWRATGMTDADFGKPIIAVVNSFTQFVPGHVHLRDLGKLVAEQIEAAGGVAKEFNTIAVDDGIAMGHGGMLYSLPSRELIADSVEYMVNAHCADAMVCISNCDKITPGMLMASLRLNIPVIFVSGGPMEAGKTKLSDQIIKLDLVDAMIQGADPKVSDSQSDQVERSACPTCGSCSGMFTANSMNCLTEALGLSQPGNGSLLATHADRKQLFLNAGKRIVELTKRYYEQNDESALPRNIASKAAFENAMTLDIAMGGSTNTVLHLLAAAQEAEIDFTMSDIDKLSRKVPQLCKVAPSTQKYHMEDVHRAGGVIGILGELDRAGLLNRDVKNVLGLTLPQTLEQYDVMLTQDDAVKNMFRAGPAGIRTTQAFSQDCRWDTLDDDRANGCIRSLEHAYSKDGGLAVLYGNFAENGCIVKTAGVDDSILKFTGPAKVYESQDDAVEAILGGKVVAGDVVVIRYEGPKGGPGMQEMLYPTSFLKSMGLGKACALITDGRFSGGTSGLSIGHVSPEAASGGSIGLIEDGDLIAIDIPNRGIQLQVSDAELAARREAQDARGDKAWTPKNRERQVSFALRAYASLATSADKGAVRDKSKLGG

Compound: O=C(O)[C@H](O)[C@@H](O)[C@H](O)[C@H](O)COP(=O)(O)O [6-PG]
LCMS/MS product assay [1]: E. coli EDD catalyzed the expected dehydration of 6-PG to KDPG

Km [2]: 1260 µM
Compound: O=P(O)(O)OC[C@H]1OC(O)(COP(=O)(O)O)[C@@H](O)[C@@H]1O (stereo partly drawn) [D-fructose-1,6-bisphosphate]

Compound: CC(C)(O)[C@@H](O)C(=O)O [DIV]
LCMS/MS product assay [3]: soybean and E. coli DHAD both converted DIV to its corresponding dehydration product

Km [2]: 310 µM
Compound: O=C(O)C(=O)C[C@H](O)[C@H](O)COP(=O)(O)O [KDPG]
LCMS/MS and GC-MS product assay [4]: enzymatic assay of soybean and E. coli EDA when KDPG was supplied as substrate
